Data published in patent US20010010822A1, “LIPID COMPLEXES AND LIPOSOMES OF HIGHLY INSOLUBLE PLATINUM COMPLEXES” (priority 1999, published 2001).

Tested on: PLATINUM RESISTANT P388 CELL LINE
Test: Anti-tumor activity of DACH-platinum compounds against platinum resistant P388 cell line
Assay type: in vivo
Conditions: initial tumor burden 1.0 × 10^6

Compound: N.N.[Cl][Pt][Cl] [Cisplatin]
- % Increase in Length of Survival (dose 3.5 mg/kg): +3%
- % T/C (dose 3.5 mg/kg): 103.8%
- Log10 Change in Tumor Burden (dose 3.5 mg/kg): +1.7
- Median Day of Death (dose 3.5 mg/kg): 13.5
- % Increase in Length of Survival (dose 5.3 mg/kg): +15%
- % T/C (dose 5.3 mg/kg): 115.4%
- Log10 Change in Tumor Burden (dose 5.3 mg/kg): +1.5
- Median Day of Death (dose 5.3 mg/kg): 15.0
- % Increase in Length of Survival (dose 8.0 mg/kg): +23%
- % T/C (dose 8.0 mg/kg): 123.1%
- Log10 Change in Tumor Burden (dose 8.0 mg/kg): +1.5
- Median Day of Death (dose 8.0 mg/kg): 16.0
